These results are taken from ChEMBL document CHEMBL4613258, “Distribution of Bibenzyls, Prenyl Bibenzyls, Bis-bibenzyls, and Terpenoids in the Liverwort Genus Radula” (J Nat Prod, 2020).

The subject of one assay is RAW264.7. The experiment in a line: Inhibition of LPS-induced NO-production in mouse RAW264.7 cells at 4.5 to 20 uM incubated for 24 hrs by Griess reagent based assay relative to control. The format is functional. (The Griess reaction detects nitrite, a stable product of nitric oxide.)
Assay [1] can be described thus: Inhibition of calmodulin (unknown origin). As to conditions: Homo sapiens.
A further assay relates to Macrophage. Put plainly: Inhibition of superoxide anion radical release in guinea pig macrophages. The class given is functional, cell-based. As to conditions: Cavia porcellus.
Another assay addresses Cyclooxygenase (Homo sapiens, UniProt P35354+P23219). The experiment in a line: Inhibition of COX (unknown origin). The format is protein assay.
The subject of assay [2] is Trichostrongylus colubriformis. Put plainly: Antiparasitic activity against Trichostrongylus colubriformis assessed as inhibiton of parasite growth at 0.7 ug/ml relative to control. The class given is functional.
A further assay deals with MRC5. The experiment in a line: Cytotoxicity against human MRC5 cells. The class given is functional, cell-based.
A further assay has as its system KB. The experiment in a line: Cytotoxicity against human KB cells. As to conditions: read-out: ED50 (the source's name). The class given is functional.
Assay [3] in a line: Inhibition of DNA polymerase beta (unknown origin). Details: species or system Homo sapiens.
Assay [4] is described as follows: Antioxidant activity assessed as DPPH radical scavenging activity at 50 ug/ml relative to control. The format is functional. (DPPH is a stable violet radical that fades when it is reduced.)
Assay [5] concerns the target Vasopressin V1a receptor (Homo sapiens) (UniProt P37288). The experiment in a line: Antagonist activity at vasopressin (unknown origin).
The next assay deals with Staphylococcus aureus. Put plainly: […] activity against Staphylococcus aureus. The class given is functional.
The subject of a further assay is NCI-H1299. The experiment in a line: Cytotoxicity against human NCI-H1299 cells. The format is functional, cell-based.
Assay [6] concerns Trichostrongylus colubriformis. Put plainly: Antiparasitic activity against Trichostrongylus colubriformis. The class given is functional, organism-based.
Assay [7] concerns Trichophyton mentagrophytes. Put plainly: Antifungal activity against Trichophyton mentagrophytes. The class given is functional.
The subject of the next assay is Candida albicans. The experiment in a line: Antifungal activity against Candida albicans. The class given is functional.

Each structure is given as a SMILES string. Converted amounts (≈) assume the structure as drawn.

Chain of Vasopressin V1a receptor (Homo sapiens) (P37288 whole entry, looked up): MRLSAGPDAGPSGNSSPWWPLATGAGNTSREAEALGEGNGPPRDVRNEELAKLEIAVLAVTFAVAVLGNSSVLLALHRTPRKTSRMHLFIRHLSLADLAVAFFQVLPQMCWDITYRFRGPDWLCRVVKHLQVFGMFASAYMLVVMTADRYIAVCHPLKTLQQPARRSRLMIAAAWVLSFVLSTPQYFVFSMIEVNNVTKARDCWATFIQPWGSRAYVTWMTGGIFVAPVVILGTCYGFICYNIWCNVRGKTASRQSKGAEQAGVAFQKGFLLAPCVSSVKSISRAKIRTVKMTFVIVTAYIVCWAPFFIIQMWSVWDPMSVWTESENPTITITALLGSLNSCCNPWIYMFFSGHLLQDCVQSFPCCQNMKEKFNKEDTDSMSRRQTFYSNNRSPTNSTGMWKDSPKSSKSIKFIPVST

Turning to `CC1=CCc2c(O)cc(CCc3ccccc3O)cc2OC1`, the “inhibition (INH)” value with RAW264.7 turned out to be 50%.

Compound `CC1=CCc2c(cc(CCc3ccc(O)cc3)c(C(=O)O)c2O)OC1` had an ID50 in [1] of 18.5 µg/mL (≈ 54.4 µM).

For the compound `CC(C)=CCc1c(CCc2ccccc2)cc(O)c(O)c1O`, the ID50 in assay [1] came to 3.5 µg/mL (≈ 11.7 µM).

The IC50 is the concentration needed to halve the response being measured. In the case of `C[C@]12COc3cc(CCc4ccccc4)c(C(=O)O)c(O)c3[C@H]1C2`, the “inhibition (INH)” value in the assay on RAW264.7 came out at 50%. The 50% inhibitory concentration (IC50) stood at 6 µg/mL (≈ 18.5 µM) in the assay on Macrophage and 39.7 µM against Cyclooxygenase.

What is called inhibition is how much of the control response was suppressed. Turning to `COc1ccc(CCc2cccc(OC)c2)cc1`, the inhibition at 0.7 µg/mL in [2] came out at 30%.

For the compound `Oc1cccc(CCc2ccc(Oc3cc(CCc4cccc(O)c4)ccc3O)cc2)c1`, it took 7.46 µg/mL (≈ 17.5 µM) to reach half-maximal inhibition in the assay on MRC5 (IC50). Also, in the assay on KB, the EC50 was 12.5 µg/mL (≈ 29.3 µM).

On to `Oc1cccc(CCc2ccc(Oc3cc(CCc4cccc(O)c4)cc(O)c3O)cc2)c1` [PERROTETTIN F], for which, in the assay on KB, the EC50 came to 20 µg/mL (≈ 45.2 µM). This compound also had an IC50 in assay [3] of 97.5 to 114 µM.

On to `CC(C)=CCc1c(O)cc(O)cc1CCc1ccccc1`, for which the Activity in assay [4] was found to be 28%. This compound came in with an ID50 in assay [1] of 4.9 µg/mL (≈ 17.4 µM).

By MIC is commonly meant the lowest concentration found to suppress growth. Lower therefore signals greater potency. In [5], `COc1cc(CCc2ccccc2)cc(O)c1CC=C(C)C` returned an ID50 of 27 µg/mL (≈ 91.1 µM). Moreover, the MIC in the assay with Staphylococcus aureus turned out to be 3 µg/mL (≈ 10.1 µM).

As to `COC(=O)c1c(CCc2ccccc2)cc(O)c(CC=C(C)C)c1O`, half-maximal inhibition in the assay on NCI-H1299 (IC50) was put at 5.1 µM.

As for `CC1=CCc2c(O)cc(CCc3ccccc3)cc2OC1`, the “inhibition (INH)” value in the assay with RAW264.7 was 50%. Besides, the ID50 in [1] came to 95 µg/mL (≈ 339 µM).

For `CC(C)=CCC/C(C)=C/Cc1c(O)cc(O)cc1CCc1ccccc1`, the “inhibition (INH)” value in the assay with RAW264.7 was determined as 50%. In assay [1], this compound had an ID50 of 4 µg/mL (≈ 11.4 µM). Also, 20 µg/mL (≈ 57.1 µM) was the least that counted as inhibitory against Staphylococcus aureus (MIC).

`COc1cccc(CCc2ccc(O)cc2)c1`: the midpoint of inhibition in [6], the IC50, lay at 0.13 µg/mL (≈ 0.569 µM). Also, the values for the MIC (in [7]; in the assay with Candida albicans) were 62.5 µg/mL (≈ 274 µM) and 125 µg/mL (≈ 548 µM), respectively.

`C=C(C)[C@H]1Cc2c(CCc3ccccc3)cc(O)c(O)c2O1` showed an ID50 in [1] of 2 µg/mL (≈ 6.75 µM).
